System: acetylcholine-induced bronchoconstriction
Test: Acetylcholine induced bronchoconstriction in anesthetized guinea pigs
Format: in vivo, guinea pig
Procedure: Male Hartley guinea pigs (320±120 g) (Charles River) are housed under standard conditions. Guinea pigs are anesthetized with urethane (2 g/kg, intraperitoneally), the trachea are cannulated and the animal is respired using a small animal respiratory pump (Harvard Apparatus LTD, Kent UK). Respiratory back pressure is measured and recorded using a rodent lung function recording system (MUMED, London UK). For drug administration the right jugular vein is cannulated. Following the surgical procedure, guinea pigs are allowed to stabilize for 20 minutes. Ten minutes before acetylcholine administration, the animals are disconnected from the ventilator and either the vehicle (10 mg lactose) or different amounts of the drug (suspended in the same amount of vehicle) are administered intratracheally. The trachea is reconnected to the ventilator and changes in pulmonary mechanics are followed. Acetylcholine (10 μg/kg) is administered intravenously in every 10 minutes six times. Male Hartley guinea pigs (320±120 g) (Charles River) are housed under standard conditions. Guinea pigs are anesthetized with urethane (2 g/kg, intraperitoneally), the trachea are cannulated and the animal is respired using a small animal respiratory pump (Harvard Apparatus LTD, Kent UK). Respiratory back pressure is measured and recorded using a rodent lung function recording system (MUMED, London UK). […]

C[N+]1(C)CCC(OC(=O)C(O)(c2ccccc2)C2CCCC2)C1 (centres unmarked) [glycopyrrolate]
protective effect on the acetylcholine-induced bronchoconstriction (drug intratracheally ten minutes before acetylcholine (10 μg/kg i.v.)): protective effect | protective effect on the acetylcholine-induced bronchoconstriction (ester and zwitterion or their combination products intratracheally, acetylcholine 10 μg/kg i.v.): protective effect

Source: patent US20190224164A1, “COMPOSITIONS AND METHODS FOR TREATMENT OF COPD” (Bodor Laboratories, Inc., priority 2016, published 2019)
